Consider 6 compounds from BindingDB's records for doi:10.1016/j.bmc.2008.08.012 (Philipps University Marburg, 2008).

In test [1] the target is T1, Dimer of Gag-Pol polyprotein [501-599] (Human immunodeficiency virus 1, UniProt P03367).
T1 construct: 501-599
Put plainly: Enzyme Inhibition Assay. The note with it: pH 5.5; 23 °C. As for the experimental part:
(§1) Enzyme assay was performed at room temperature on a microplate reader (Safire2TM) using black 96-well microtiter plates purchased from Nunc. Inhibitors and substrates were previously dissolved in 4% DMSO. The hydrolysis of the substrates was recorded as increase in fluorescence intensity. IC50 values were generated by nonlinear regression analysis from plots of vi/v0 versus inhibitor concentration, in which vi is the velocity in presence, and v0 the velocity in the absence of an inhibitor. The kinetic constants were determined by the method of Lineweaver and Burk, and Ki values were consecutively calculated from the following equation: Ki = IC50/[1 + (S/Km)]. The overall error of the assays is estimated to be +/-40%.

Test [2] concerns the target Pepsin A (Sus scrofa, UniProt P00791). As to the kind of experiment: Enzyme Inhibition Assay. Conditions: 25 °C. As for the experimental part: as §1

Bounds are passed on as bounds.

Chain of Pepsin A (P00791 whole entry): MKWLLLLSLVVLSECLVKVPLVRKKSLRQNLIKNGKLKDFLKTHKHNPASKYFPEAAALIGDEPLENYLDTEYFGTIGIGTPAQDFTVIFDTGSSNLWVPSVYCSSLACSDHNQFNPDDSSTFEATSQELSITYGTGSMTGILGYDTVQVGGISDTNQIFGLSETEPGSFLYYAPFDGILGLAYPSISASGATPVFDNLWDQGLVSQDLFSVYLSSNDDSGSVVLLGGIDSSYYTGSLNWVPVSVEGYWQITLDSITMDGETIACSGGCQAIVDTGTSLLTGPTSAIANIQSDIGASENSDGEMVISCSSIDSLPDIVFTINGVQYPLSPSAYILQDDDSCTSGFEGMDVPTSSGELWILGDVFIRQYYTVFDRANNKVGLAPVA

A word on the IC50: it is the concentration that inhibits the measured activity by half. Higher therefore signals weaker potency in that assay. Take `O=S(=O)(c1ccccc1)N(CCCNCCCN(Cc1ccccc1)S(=O)(=O)c1ccccc1)Cc1ccccc1` [phenyl-substituted sulfonamides, 6c]: the IC50 in test [1] and in test [2] was above 250 µM each time.

For the compound `O=C(Cc1ccccc1)N(CCCNCCCN(Cc1ccccc1)C(=O)Cc1ccccc1)Cc1ccccc1` [carboxamide, 12c], the concentration for half-maximal inhibition (IC50) in test [1] and in test [2] was above 250 µM each time. With `Nc1ccc(S(=O)(=O)N(CCCNCCN(Cc2ccccc2)S(=O)(=O)c2ccc(N)cc2)Cc2ccccc2)cc1` [phenyl-substituted sulfonamides, 6e], the IC50 in test [1] and in test [2] was above 250 µM each time.

As to `O=C(Cc1ccccc1)N(CCNCCN(Cc1ccccc1)C(=O)Cc1ccccc1)Cc1ccccc1` [carboxamide, 12a], the half-inhibitory concentration (IC50) in test [1] and in test [2] was above 250 µM in each case.

Turning to `O=C(Cc1ccccc1)N(CCCNCCN(Cc1ccccc1)C(=O)Cc1ccccc1)Cc1ccccc1` [carboxamide, 12b], the IC50 in test [1] and in test [2] was above 250 µM each time. `Nc1ccc(S(=O)(=O)N(CCCNCCCN(Cc2ccccc2)S(=O)(=O)c2ccc(N)cc2)Cc2ccccc2)cc1` [phenyl-substituted sulfonamides, 6f] displayed an IC50 in test [1] above 250 µM.
